# Laboratory results reported in ChEMBL document CHEMBL4033762, “Development of Quinazoline/Pyrimidine-2,4(1H,3H)-diones as Agonists of Cannabinoid Receptor Type 2” (ACS Med Chem Lett, 2017).
# Key:
# Cannabinoid receptor 1 = Cannabinoid receptor 1 (Homo sapiens, UniProt P21554); test: Agonist activity at CB1 receptor (unknown origin) expressed in CHO cells co-expressing G-alpha16 incubated for 24 hrs by fluo-4 AM dye based whole-cell calcium mobilization assay
# Cannabinoid receptor 2 [1] = target: T1, Cannabinoid receptor 2 (Homo sapiens, UniProt P34972); test: Agonist activity at CB2 receptor (unknown origin) expressed in CHO cells co-expressing G-alpha16 incubated for 24 hrs by fluo-4 AM dye based whole-cell calcium mobilization assay; format: functional
# T1 sequence (P34972 whole entry): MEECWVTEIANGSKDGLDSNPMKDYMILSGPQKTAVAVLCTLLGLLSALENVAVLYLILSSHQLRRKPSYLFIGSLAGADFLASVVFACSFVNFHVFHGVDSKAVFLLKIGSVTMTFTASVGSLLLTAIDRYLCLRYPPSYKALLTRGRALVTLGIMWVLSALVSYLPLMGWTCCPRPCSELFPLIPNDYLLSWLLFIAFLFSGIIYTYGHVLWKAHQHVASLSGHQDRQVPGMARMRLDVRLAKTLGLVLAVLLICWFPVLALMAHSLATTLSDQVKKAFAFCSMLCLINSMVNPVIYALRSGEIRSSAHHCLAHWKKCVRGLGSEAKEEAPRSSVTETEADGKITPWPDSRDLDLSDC
# Cannabinoid receptor 2 [2] = target: T1, Cannabinoid receptor 2; test: Agonist activity at CB2 receptor (unknown origin) expressed in CHO cells co-expressing G-alpha16 incubated for 24 hrs by fluo-4 AM dye based whole-cell calcium mobilization assay relative to CP55940; format: functional
# [3] = Ratio of EC50 for agonist activity at CB1 receptor (unknown origin) expressed in CHO cells to EC50 for agonist activity at CB2 receptor (unknown origin) expressed in CHO cells; set-up: species or system Homo sapiens
# [4] = Lipophilicity, log P of the compound incubated at 37 degC for 20 hrs by HPLC based shake flask method; format: physicochemical
# Sequence of Cannabinoid receptor 1 (P21554 whole entry): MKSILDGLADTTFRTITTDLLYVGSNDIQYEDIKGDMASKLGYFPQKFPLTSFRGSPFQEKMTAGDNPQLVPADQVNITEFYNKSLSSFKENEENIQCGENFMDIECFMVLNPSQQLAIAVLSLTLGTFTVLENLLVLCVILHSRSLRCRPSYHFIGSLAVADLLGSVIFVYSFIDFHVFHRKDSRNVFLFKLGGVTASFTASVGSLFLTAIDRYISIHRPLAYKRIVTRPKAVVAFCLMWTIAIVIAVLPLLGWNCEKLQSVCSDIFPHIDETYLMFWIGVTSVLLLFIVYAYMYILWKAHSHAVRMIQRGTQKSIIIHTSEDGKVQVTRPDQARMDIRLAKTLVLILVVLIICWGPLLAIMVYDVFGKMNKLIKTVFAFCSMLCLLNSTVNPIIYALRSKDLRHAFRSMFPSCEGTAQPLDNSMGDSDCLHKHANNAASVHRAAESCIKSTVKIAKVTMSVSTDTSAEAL
Structure (SMILES),EC50 (Cannabinoid receptor 1) [µM],EC50 (Cannabinoid receptor 2 [1]) [nM],Emax (Cannabinoid receptor 2 [2]) [%],Ratio EC50 [3],logP at 20 h [4]
O=C(NCC1CCOCC1)c1cnc(Nc2ccc(Cl)cc2Cl)nc1C(F)(F)F [GW842166X],> 10,343,97,>29,4.27
CCCCCn1c(C)c(Br)c(=O)n(CC(=O)NC(C)(C)C)c1=O,> 10,48.7,74,>205,2.24
CCCCCn1c(=O)n(CC(=O)NC2CCCCC2)c(=O)c2c(OC)cccc21,> 10,> 10000,–,–,–
Cc1cccc2c(=O)n(CC(=O)NC(C)(C)C)c(=O)n(CC3CC3)c12,> 10,309,110,>32,–
CCCCCn1c(=O)n(CC(=O)NC2CCCCC2)c(=O)c2c(Cl)cccc21,> 10,> 10000,–,–,–
CCCCCn1c(=O)n(CC(=O)NCCCC)c(=O)c2c(OC)cccc21,> 10,> 10000,–,–,–
CCCCCn1c(C)cc(=O)n(CC(=O)NC2CCCCC2)c1=O,> 10,> 10000,–,–,–
CCCCn1c(=O)n(CC(=O)NC(C)(C)C)c(=O)c2ccccc21,> 10,112,101,>89,–
CCCn1c(=O)n(CC(=O)NC(C)(C)C)c(=O)c2ccccc21,> 10,1420,75,>7,–
CCCCCn1c(C)c(C2CC2)c(=O)n(CC(=O)NC(C)(C)C)c1=O,> 10,270,71,>37,–
CCCCCn1c(=O)n(CC(=O)NC(C)(C)C)c(=O)c2c(C)cccc21,> 10,14,77,>715,2.56
CCCCn1c(C)cc(=O)n(CC(=O)NC(C)(C)C)c1=O,> 10,> 10000,–,–,–
CCCCn1c(=O)n(CC(=O)NC(C)(C)C)c(=O)c2cccc(C)c21,> 10,38.2,102,>262,–
CCCn1c(=O)n(CC(=O)NC(C)(C)C)c(=O)c2cccc(C)c21,> 10,407,121,>25,–
CCCCCn1c(=O)n(CC(=O)NC(C)(C)C)c(=O)c2cccc(Cl)c21,> 10,52.7,118,>190,–
CCCCCn1c(C)c(Cl)c(=O)n(CC(=O)NC(C)(C)C)c1=O,> 10,227,65,>44,–
C=CCCn1c(=O)n(CC(=O)NC(C)(C)C)c(=O)c2cccc(C)c21,> 10,99.6,90,>100,–
CCCCCn1c(=O)n(CC(=O)NC(C)(C)C)c(=O)c2cccc(C)c21,> 10,27.7,99,>361,–
CCCCCn1c(=O)n(CC(=O)NCC(C)C)c(=O)c2ccccc21,> 10,370,81,>27,–
CCCCCn1c(C)cc(=O)n(CC(=O)NCCCC)c1=O,> 10,> 10000,–,–,–

Structure (SMILES),EC50 (Cannabinoid receptor 1) [µM],EC50 (Cannabinoid receptor 2 [1]) [nM],Emax (Cannabinoid receptor 2 [2]) [%],Ratio EC50 [3],logP at 20 h [4]
CCCCCn1c(=O)n(CC(=O)NC(C)(C)C)c(=O)c2ccccc21,> 10,86.5,80,>116,–
CCCCCn1c(C)cc(=O)n(CC(=O)NC(C)(C)C)c1=O,> 10,722,72,>13,–
CCCCCn1c(C)c(I)c(=O)n(CC(=O)NC(C)(C)C)c1=O,> 10,178,78,>56,–
CCCCCn1c(=O)n(CC(=O)NCCCC)c(=O)c2ccccc21,> 10,78.6,78,>127,–
CCCn1c(=O)n(CC(=O)NC(C)(C)C)c(=O)c2c(C)cccc21,> 10,113,113,>88,–
C=CCCn1c(=O)n(CC(=O)NC(C)(C)C)c(=O)c2c(C)cccc21,> 10,46.8,103,>214,–
CCCCCCn1c(C)cc(=O)n(CC(=O)NC(C)(C)C)c1=O,> 10,767,65,>13,–
CCCCN1C(=O)/C(=C/NC2CCCCC2)C(=O)c2cccc(C)c21,–,–,–,–,4.35
CCCCCn1c(C)c(-c2cccc(C)c2)c(=O)n(CC(=O)NC(C)(C)C)c1=O,> 10,> 10000,–,–,–
CCCCCn1c(=O)n(CC(=O)NC(C)(C)C)c(=O)c2c(OC)cccc21,> 10,1250,88,>8,–
CCCCCn1c(=O)n(CC(=O)NC2CCCCC2)c(=O)c2c(C)cccc21,> 10,395,56,>25,–
Cc1cccc2c1c(=O)n(CC(=O)NC(C)(C)C)c(=O)n2CC1CC1,> 10,68.3,106,>146,–
CCCCCn1c(=O)n(CC(=O)NC2CCCCC2)c(=O)c2ccccc21,> 10,> 10000,–,–,–
CCCCCn1c(=O)n(CC(=O)NC2CC2)c(=O)c2ccccc21,> 10,743,58,>13,–
CCCCCn1c(=O)n(CC(=O)NCCCC)c(=O)c2c(Cl)cccc21,> 10,147,30,>68,–
CCCCCn1c(=O)n(CC(=O)NC(C)C)c(=O)c2ccccc21,> 10,214,65,>47,–
CCCCCn1c(=O)n(CC(=O)NCCCC)c(=O)c2c(C)cccc21,> 10,468,83,>21,–
CCCCn1c(=O)n(CC(=O)NC(C)(C)C)c(=O)c2c(C)cccc21,> 10,23.5,98,>425,–
CCCCCn1c(=O)n(CC(=O)NC(C)(C)C)c(=O)c2cccc(OC)c21,> 10,> 10000,–,–,–
CCCCCn1c(C)c(-c2ccccc2)c(=O)n(CC(=O)NC(C)(C)C)c1=O,> 10,> 10000,–,–,–
